Source: patent US8273890B2 (4SC AG, priority 2007, dated 2012)

These compounds were tested against T1, recombinant Plk1 protein (Homo sapiens, UniProt P53350) (assay: Plk1 kinase activity inhibition assay (33P-ATP, alpha casein substrate, flash plates)). Settings: enzymatic assay, 100 nM Li-ATP, 80 minutes at 30° C.
T1 construct: histidine tag (N); made in house; host or cells: SF9 insect cells
Format: biochemical
Description: The inhibition of Plk1 kinase activity can be measured using recombinant Plk1 protein expressed as an N-terminally histidine-tagged protein in SF9 insect cells and alpha casein as substrate. The Plk1 assay is run in 96 well plates by incubating 50 to 100 ng per well recombinant Plk1, 500 ng per well alpha casein (Sigma, # C-6780) as substrate, 10 μl of compound of invention (test compounds were dissolved as 20 mM solutions in dimethylsulfoxide (DMSO) and subsequently diluted), and 100 nM Li-ATP (including ^33P-ATP) in 100 μl of reaction buffer ([…] HEPES, pH 7.5; 3 mM MgCl2; 3 mM MnCl2; 3 μM Na-Orthovanadat; 1 mM DTT; 1 μg/ml PEG 8000) for 80 minutes at 30° C. The reactions are terminated by adding 100 μl stopping buffer (2% H3PO4 for 5 minutes) and are washed 3 times with washing solution (0.9% NaCl). Determining ^33P incorporated into the protein substrate alpha casein, the detection is based on the adhesion of the phosphorylated protein to the surface of scintillator-coated flash plates (Perkin Elmer, USA; #SMP-200). Phosphorylation of alpha casein is measured by counting the radioactivity bound to the plate for 60 sec. using a plate reader (Perkin Elmer, USA; Wallac Microbeta). By this method, the IC50 value of the Plk1 inhibition is determined as described above.

T1 sequence (P53350 whole entry): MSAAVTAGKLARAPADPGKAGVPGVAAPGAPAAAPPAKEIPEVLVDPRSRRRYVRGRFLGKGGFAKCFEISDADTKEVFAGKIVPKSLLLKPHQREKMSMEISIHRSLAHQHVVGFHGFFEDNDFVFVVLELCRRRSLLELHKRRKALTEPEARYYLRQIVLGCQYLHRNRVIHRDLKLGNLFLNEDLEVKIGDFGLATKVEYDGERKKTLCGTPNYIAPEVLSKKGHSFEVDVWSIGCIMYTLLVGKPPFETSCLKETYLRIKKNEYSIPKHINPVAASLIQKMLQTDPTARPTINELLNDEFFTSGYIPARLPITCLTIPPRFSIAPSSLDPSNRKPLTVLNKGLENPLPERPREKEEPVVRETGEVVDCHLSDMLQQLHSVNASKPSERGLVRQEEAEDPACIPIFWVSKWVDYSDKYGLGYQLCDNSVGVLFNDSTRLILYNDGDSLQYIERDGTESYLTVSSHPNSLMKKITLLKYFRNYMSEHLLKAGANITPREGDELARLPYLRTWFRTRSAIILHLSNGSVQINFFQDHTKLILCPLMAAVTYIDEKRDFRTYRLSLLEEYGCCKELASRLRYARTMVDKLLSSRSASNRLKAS

| Structure (SMILES) | IC50 |
| --- | --- |
| C[C@@H](Oc1cc(-n2cnc3cnc(CN4CCN(c5ncccn5)CC4)cc32)sc1C(N)=O)c1ccccc1C(F)(F)F [Example 77, 5-{6-[(4-pyrimidin-2-ylpiperazin-1-yl)methyl]-1H-imidazo[4,5-c]pyridin-1-yl}-3-{(1R)-1-[2-(trifluoromethyl)phenyl]ethoxy}thiophene-2-carboxamide] | 0.01 to 0.1 µM |
| COc1cc2ncn(-c3cc(OCc4ccccc4C(F)(F)F)c(C(N)=O)s3)c2nc1OC [Example 21B, 5-(5,6-Dimethoxy-3H-imidazo[4,5-b]pyridin-3-yl)-3-{[2-(trifluoromethyl)benzyl]oxy}thiophene-2-carboxamide] | 0.01 to 0.1 µM |
| CCN1CCN(Cc2cc3c(cn2)ncn3-c2cc(OC(C)c3ccccc3OC(F)F)c(C(N)=O)s2)CC1 (stereo not shown) [Example 135, 3-{1-[2-(difluoromethoxy)phenyl]ethoxy}-5-{6-[(4-ethylpiperazin-1-yl)methyl]-1H-imidazo[4,5-c]pyridin-1-yl}thiophene-2-carboxamide] | < 0.01 µM |
| C[C@@H](Oc1cc(-n2cnc3cnc(CN4CCN(CCN(C)C)CC4)cc32)sc1C(N)=O)c1ccccc1C(F)(F)F [Example 70, 5-[6-({4-[2-(dimethylamino)ethyl]piperazin-1-yl}methyl)-1H-imidazo[4,5-c]pyridin-1-yl]-3-{(1R)-1-[2-(trifluoromethyl)phenyl]ethoxy}thiophene-2-carboxamide] | 0.01 to 0.1 µM |
| C=CCN1CCN(Cc2cc3c(cn2)ncn3-c2cc(O[C@H](C)c3ccccc3C(F)(F)F)c(C(N)=O)s2)CC1 [Example 122, 5-{6-[(4-allylpiperazin-1-yl)methyl]-1H-imidazo[4,5-c]pyridin-1-yl}-3-{(1R)-1-[2-(trifluoromethyl)phenyl]ethoxy}thiophene-2-carboxamide] | < 0.01 µM |
| C[C@@H](Oc1cc(-n2cnc3cnc(CN4CCC(C(=O)N5CCN(C)CC5)CC4)cc32)sc1C(N)=O)c1ccccc1C(F)(F)F [Example 91, 5-[6-({4-[(4-methylpiperazin-1-yl)carbonyl]piperidin-1-yl}methyl)-1H-imidazo[4,5-c]pyridin-1-yl]-3-{(1R)-1-[2-(trifluoromethyl)phenyl]ethoxy}thiophene-2-carboxamide] | 0.01 to 0.1 µM |
| CCC(Oc1cc(-n2cnc3cnc(CN4CCN(C5CC5)CC4)cc32)sc1C(N)=O)c1ccccc1Cl (stereo not shown) [Example 140, 3-{[1-(2-chlorophenyl)propyl]oxy}-5-{6-[(4-cyclopropylpiperazin-1-yl)methyl]-1H-imidazo[4,5-c]pyridin-1-yl}thiophene-2-carboxamide] | 0.01 to 0.1 µM |
| CCC(Oc1cc(-n2cnc3cnc(CN4CCN(C(=O)N(C)C)CC4)cc32)sc1C(N)=O)c1ccccc1Cl (stereo not shown) [Example 137, 4-{[1-(5-carbamoyl-4-{[1-(2-chlorophenyl)propyl]oxy}-2-thienyl)-1H-imidazo[4,5-c]pyridin-6-yl]methyl}-N,N-dimethylpiperazine-1-carboxamide] | 0.01 to 0.1 µM |
| COc1ccc2ncn(-c3cc(OCc4ccccc4C(F)(F)F)c(C(N)=O)s3)c2n1 [Example 22, 5-(5-methoxy-3H-imidazo[4,5-b]pyridin-3-yl)-3-{[2-(trifluoromethyl)benzyl]oxy}thiophene-2-carboxamide] | < 0.01 µM |
| C[C@@H](Oc1cc(-n2cnc3cnc(CN4CCN(C(=O)N(C)C)CC4)cc32)sc1C(N)=O)c1ccccc1Br [Example 133] | < 0.01 µM |
| CCc1ccccc1COc1cc(-n2cnc3cnc(CO)cc32)sc1C(N)=O [Example 162, 3-[(2-ethylbenzyl)oxy]-5-[6-(hydroxymethyl)-1H-imidazo[4,5-c]pyridin-1-yl]thiophene-2-carboxamide] | 0.01 to 0.1 µM |
| NC(=O)c1sc(-n2cnc3ccncc32)cc1OCc1ccc(C(F)(F)F)cc1 [Example 28, 5-(3H-imidazo[4,5-c]pyridin-3-yl)-3-{[4-(trifluoromethyl)benzyl]oxy}thiophene-2-carboxamide] | 0.1 to 1 µM |

Continued, values first:

| IC50 | Structure (SMILES) |
| --- | --- |
| < 0.01 µM | C[C@@H](Oc1cc(-n2cnc3cnc(CNC4CCN(C)CC4)cc32)sc1C(N)=O)c1ccccc1C(F)(F)F [Example 73, 5-(6-{[(1-methylpiperidin-4-yl)amino]methyl}-1H-imidazo[4,5-c]pyridin-1-yl)-3-{(1R)-1-[2-(trifluoromethyl)phenyl]ethoxy}thiophene-2-carboxamide] |
| < 0.01 µM | C[C@@H](Oc1cc(-n2cnc3cnc(CN4CCN(C)CC4)cc32)sc1C(N)=O)c1ccccc1C(F)(F)F [Example 24, 5-{6-[(4-methylpiperazin-1-yl)methyl]-1H-imidazo[4,5-c]pyridin-1-yl}-3-{(1R)-1-[2-(trifluoromethyl)phenyl]ethoxy}thiophene-2-carboxamide] |
| < 0.01 µM | CC(Oc1cc(-n2cnc3cnc(CO)cc32)sc1C(N)=O)c1ccc(F)cc1C(F)(F)F (stereo not shown) [Example 51, 3-{1-[4-fluoro-2-(trifluoromethyl)phenyl]ethoxy}-5-[6-(hydroxymethyl)-1H-imidazo[4,5-c]pyridin-1-yl]thiophene-2-carboxamide] |
| 0.01 to 0.1 µM | C[C@@H](Oc1cc(-n2cnc3cnc(CNC4CCC4)cc32)sc1C(N)=O)c1ccccc1C(F)(F)F [Example 105, 5-{6-[(cyclobutylamino)methyl]-1H-imidazo[4,5-c]pyridin-1-yl}-3-{(1R)-1-[2-(trifluoromethyl)phenyl]ethoxy}thiophene-2-carboxamide] |
| < 0.01 µM | C[C@@H](Oc1cc(-n2cnc3cnc(CN4CCN(C(N)=O)CC4)cc32)sc1C(N)=O)c1ccccc1C(F)(F)F [Example 67, 4-{[1-(5-carbamoyl-4-{(1R)-1-[2-(trifluoromethyl)phenyl]ethoxy}-2-thienyl)-1H-imidazo[4,5-c]pyridin-6-yl]methyl}piperazine-1-carboxamide] |
| 0.01 to 0.1 µM | CC(Oc1cc(-n2cnc3cnccc32)sc1C(N)=O)c1ccccc1C(F)(F)F (stereo not shown) [Example 14, 5-(1H-Imidazo[4,5-c]pyridin-1-yl)-3-{1-[2-(trifluoromethyl)phenyl]ethoxy}thiophene-2-carboxamide] |
| < 0.01 µM | CC(Oc1cc(-n2cnc3cnc(CN4CCN(C)CC4)cc32)sc1C(N)=O)c1ccccc1C(F)(F)F (stereo not shown) [Example 45, 5-{6-[(4-methylpiperazin-1-yl)methyl]-1H-imidazo[4,5-c]pyridin-1-yl}-3-{-1-[2-(trifluoromethyl)phenyl]ethoxy}thiophene-2-carboxamide] |
| 0.01 to 0.1 µM | C[C@@H](Oc1cc(-n2cnc3cc(CNC4CC4)ncc32)sc1C(N)=O)c1ccccc1C(F)(F)F [Example 115, 5-{6-[(cyclopropylamino)methyl]-3H-imidazo[4,5-c]pyridin-3-yl}-3-{(1R)-1-[2-(trifluoromethyl)phenyl]ethoxy}thiophene-2-carboxamide] |
| < 0.01 µM | CCN1CCN(Cc2cc3c(cn2)ncn3-c2cc(O[C@H](C)c3ccccc3C(F)(F)F)c(C(N)=O)s2)CC1 [Example 107, 5-{6-[(4-ethylpiperazin-1-yl)methyl]-1H-imidazo[4,5-c]pyridin-1-yl}-3-{(1R)-1-[2-(trifluoromethyl)phenyl]ethoxy}thiophene-2-carboxamide] |
| < 0.01 µM | CC(Oc1cc(-n2cnc3cnc(CO)cc32)sc1C(N)=O)c1ccccc1C(F)(F)F (stereo not shown) [Example 44, 5-[6-(hydroxymethyl)-1H-imidazo[4,5-c]pyridin-1-yl]-3-{1-[2-(trifluoromethyl)phenyl]ethoxy}thiophene-2-carboxamide] |
